Test results published in PubChem BioAssay AID248 (DTP/NCI, 2004).
Several values for one entry are separate records, joined by “and”; a condition that tells them apart may be missing. Equal entries are not always repeated. Inconclusive results and toxic doses are left out. No stated cut-off is given here; in the data, active means T/C of 150% or more; inactive means T/C below 125%.

System: L1210 leukemia ip in BDF1 mice, survival T/C
Test: NCI In Vivo Anticancer Drug Screen. Data for tumor model L1210 Leukemia (intraperitoneal) in B6D2F1 (BDF1) mice
Settings: endpoint: mean survival time, higher = longer survival
Procedure, shortened: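 Value reflects the ratio of survival in compound-treated mice to survival in vehicle-treated controls, with both groups carrying the same transplanted tumor.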

[1] = dose: 50.0 mg/kg/injection, schedule: Q01DX001 (ip), vehicle: carboxymethylcellulose (CMC)
[2] = dose: 100.0 mg/kg/injection, schedule: Q01DX001 (ip), vehicle: carboxymethylcellulose (CMC)
[3] = dose: 200.0 mg/kg/injection, schedule: Q01DX001 (ip), vehicle: carboxymethylcellulose (CMC)
[4] = dose: 400.0 mg/kg/injection, schedule: Q01DX001 (ip), vehicle: carboxymethylcellulose (CMC)
[5] = dose: 100.0 mg/kg/injection, schedule: Q04DX002 (ip), vehicle: Klucel (hydroxypropylcellulose) (HPC)
[6] = dose: 100.0 mg/kg/injection, schedule: Q04DX003 (ip), vehicle: Klucel (hydroxypropylcellulose) (HPC)
[7] = dose: 200.0 mg/kg/injection, schedule: Q04DX003 (ip), vehicle: Klucel (hydroxypropylcellulose) (HPC)
[8] = dose: 100.0 mg/kg/injection, schedule: Q04DX003 (ip), vehicle: saline with Tween-80
[9] = dose: 100.0 mg/kg/injection, schedule: Q04DX002 (ip), vehicle: saline
[10] = dose: 200.0 mg/kg/injection, schedule: Q04DX002 (ip), vehicle: saline
[11] = dose: 100.0 mg/kg/injection, schedule: Q01DX001 (ip), vehicle: Klucel (hydroxypropylcellulose) (HPC)
[12] = dose: 200.0 mg/kg/injection, schedule: Q01DX001 (ip), vehicle: Klucel (hydroxypropylcellulose) (HPC)
[13] = dose: 400.0 mg/kg/injection, schedule: Q01DX001 (ip), vehicle: Klucel (hydroxypropylcellulose) (HPC)
[14] = dose: 50.0 mg/kg/injection, schedule: Q01DX009 (ip), vehicle: saline with Tween-80
[15] = dose: 100.0 mg/kg/injection, schedule: Q01DX009 (ip), vehicle: saline with Tween-80
[16] = dose: 200.0 mg/kg/injection, schedule: Q01DX009 (ip), vehicle: saline with Tween-80
[17] = dose: 200.0 mg/kg/injection, schedule: Q04DX003 (ip), vehicle: saline with Tween-80
[18] = dose: 100.0 mg/kg/injection, schedule: Q01DX009 (ip), vehicle: Klucel (hydroxypropylcellulose) (HPC)
[19] = dose: 200.0 mg/kg/injection, schedule: Q01DX009 (ip), vehicle: Klucel (hydroxypropylcellulose) (HPC)
[20] = dose: 400.0 mg/kg/injection, schedule: Q01DX009 (ip), vehicle: Klucel (hydroxypropylcellulose) (HPC)
[21] = dose: 200.0 mg/kg/injection, schedule: Q04DX002 (ip), vehicle: Klucel (hydroxypropylcellulose) (HPC)
[22] = dose: 400.0 mg/kg/injection, schedule: Q04DX002 (ip), vehicle: Klucel (hydroxypropylcellulose) (HPC)

Measured: T/C

O=C(/C=C\c1ccccc1)N1CCc2ccccc2C1
inactive: dose: 75.0 mg/kg/injection, schedule: Q04DX003 (ip), vehicle: saline 100 % of control | dose: 300.0 mg/kg/injection, schedule: Q04DX003 (ip), vehicle: saline 101 % of control

Clc1ncnc2[nH]cc(Br)c12
inactive: [1] 98 % of control | [2] 104 % of control | [3] 110 % of control | [4] 98 % of control

CCn1cc(C(=O)O)c(=O)c2cc(OC)c3ccccc3c21
inactive: dose: 50.0 mg/kg/injection, schedule: Q04DX002 (ip), vehicle: Klucel (hydroxypropylcellulose) (HPC) 92 % of control | [5] 103 % of control

CCN(CC)CCSC(CO)c1ccccc1 (stereo not given)
inactive: dose: 75.0 mg/kg/injection, schedule: Q04DX003 (ip), vehicle: Klucel (hydroxypropylcellulose) (HPC) 97 % of control | dose: 150.0 mg/kg/injection, schedule: Q04DX003 (ip), vehicle: Klucel (hydroxypropylcellulose) (HPC) 92 % of control

NC1C2C3C=CC(C(C(=O)O)C3C(=O)O)C12 (stereo not given)
inactive: [6] 98 % of control | [7] 102 % of control | dose: 400.0 mg/kg/injection, schedule: Q04DX003 (ip), vehicle: Klucel (hydroxypropylcellulose) (HPC) 101 % of control

C=C1C(=O)OC2CC(C)C3CC(OCCCl)OC(OCCCl)C3(C)CC12 (stereo not given)
inactive: dose: 1.25 mg/kg/injection, schedule: Q01DX005 (ip), vehicle: other 104 % of control | dose: 2.5 mg/kg/injection, schedule: Q01DX005 (ip), vehicle: other 106 % of control | dose: 5.0 mg/kg/injection, schedule: Q01DX005 (ip), vehicle: other 101 % of control | dose: 10.0 mg/kg/injection, schedule: Q01DX005 (ip), vehicle: other 101 % of control | dose: 20.0 mg/kg/injection, schedule: Q01DX005 (ip), vehicle: other 113 % of control

CCCCOc1ccc(NC(=O)CCl)cc1
inactive: [8] 89 % of control

CCCOCCOCCOC(C)Oc1ccc(OC)cc1 (stereo not given)
inactive: [9] 92 % of control | [10] 101 % of control

Cc1cc(C)c(F)c(Br)c1N
inactive: dose: 50.0 mg/kg/injection, schedule: Q04DX003 (ip), vehicle: Klucel (hydroxypropylcellulose) (HPC) 95 % of control | [11] 97 % of control | [6] 95 % of control | [12] 101 % of control | [7] 106 % of control | [13] 100 % of control

O=C(CC(O)(C(F)(F)Cl)C(F)(F)Cl)c1ccco1
inactive: [14] 98 % of control | [15] 98 % of control | [8] 103 % of control | [16] 95 % of control | [17] 90 % of control

CC1(C)OC(C(O)CO)C(C2COC(=S)O2)O1 (stereo not given)
inactive: [9] 107 % of control | [10] 104 % of control | dose: 400.0 mg/kg/injection, schedule: Q04DX002 (ip), vehicle: saline 100 % of control

CCOC(=O)C(=O)Nc1onc(C)c1[N+](=O)[O-]
inactive: [11] 91 % of control | [18] 93 % of control | [12] 97 % of control | [19] 93 % of control | [13] 100 % of control

CCCCCCCCCCCCCCCCCC(=O)N/N=C/c1ccc(N(C)C)cc1
inactive: [18] 93 % of control | [19] 94 % of control | [20] 98 % of control

Cc1nc2cnc(N)nc2nc1C
inactive: dose: 16.0 mg/kg/injection, schedule: Q01DX Z (ip), vehicle: methylcellulose (MC) 97 % of control | dose: 31.0 mg/kg/injection, schedule: Q01DX Z (ip), vehicle: methylcellulose (MC) 97 % of control | dose: 62.0 mg/kg/injection, schedule: Q01DX Z (ip), vehicle: methylcellulose (MC) 109 % of control | dose: 100.0 mg/kg/injection, schedule: Q01DX001 (ip), vehicle: other 96 % of control | dose: 125.0 mg/kg/injection, schedule: Q01DX Z (ip), vehicle: methylcellulose (MC) 89 % of control and 90 % of control | dose: 200.0 mg/kg/injection, schedule: Q01DX001 (ip), vehicle: other 101 % of control | dose: 250.0 mg/kg/injection, schedule: Q01DX Z (ip), vehicle: methylcellulose (MC) 91 % of control | dose: 400.0 mg/kg/injection, schedule: Q01DX001 (ip), vehicle: other 98 % of control | dose: 500.0 mg/kg/injection, schedule: Q01DX Z (ip), vehicle: methylcellulose (MC) 93 % of control

C1CC2CCC(N3CCOCC3)C(C1)O2 (stereo not given)
inactive: [14] 102 % of control | [15] 102 % of control | [16] 102 % of control

Cc1cc(N(CCCl)CCCl)ccc1C=Nc1ccc(-c2csc(Cc3ccccc3)n2)cc1
inactive: [1] 105 % of control | [2] 103 % of control | [3] 116 % of control | [4] 97 % of control

CCN(CC)Cc1ccccc1COC(=O)c1cccc(Cl)c1
inactive: [5] 103 % of control | [21] 103 % of control | [22] 92 % of control

O=C(O)C1C(c2ccccc2)C2(c3ccccc3)C(=O)C1(c1ccccc1)C(c1ccccc1)=C2c1ccccc1 (stereo not given)
inactive: dose: 25.0 mg/kg/injection, schedule: Q01DX001 (ip), vehicle: saline with Tween-80 98 % of control | dose: 50.0 mg/kg/injection, schedule: Q01DX001 (ip), vehicle: saline with Tween-80 88 % of control | dose: 100.0 mg/kg/injection, schedule: Q01DX001 (ip), vehicle: saline with Tween-80 91 % of control | dose: 200.0 mg/kg/injection, schedule: Q01DX001 (ip), vehicle: saline with Tween-80 90 % of control | dose: 400.0 mg/kg/injection, schedule: Q01DX001 (ip), vehicle: saline with Tween-80 90 % of control

CCOC(=O)C/C(C(=O)O)=C(\C)c1ccc2ccccc2c1
inactive: [11] 101 % of control | [18] 95 % of control | [12] 95 % of control | [19] 100 % of control | [13] 95 % of control | [20] 86 % of control

O=C(OC1CCOCC1OC(=O)c1ccccc1)c1ccccc1 (stereo not given)
inactive: dose: 100.0 mg/kg/injection, schedule: Q04DX002 (ip), vehicle: saline with Tween-80 100 % of control | dose: 200.0 mg/kg/injection, schedule: Q04DX002 (ip), vehicle: saline with Tween-80 100 % of control | dose: 400.0 mg/kg/injection, schedule: Q04DX002 (ip), vehicle: saline with Tween-80 96 % of control

C1CCc2c(c3c(c4c2CCCC4)CCCC3)C1
inactive: [5] 100 % of control | [21] 93 % of control | [22] 97 % of control

C=CC1(C)CO1 (stereo not given)
inactive: dose: 100.0 mg/kg/injection, schedule: Q04DX003 (ip), vehicle: saline 93 % of control | dose: 200.0 mg/kg/injection, schedule: Q04DX003 (ip), vehicle: saline 112 % of control | dose: 400.0 mg/kg/injection, schedule: Q04DX003 (ip), vehicle: saline 96 % of control

CCCCCCCCCCCCCCCCCOC(=O)CCCCCCCCCCCCCCCCC
inactive: [8] 103 % of control | [17] 92 % of control | dose: 400.0 mg/kg/injection, schedule: Q04DX003 (ip), vehicle: saline with Tween-80 89 % of control
